In US8883130B2, “Transparent antiperspirant gels” (Henkel AG & Co. KGaA, priority 2008, dated 2014):

Test: Emulsion stability with silicone-free water-in-oil emulsifiers
Assay type: physicochemical

## Laureth-2
  stability of the emulsion: did not yield stable emulsions
